{"source": "patent US20260191838A1", "about": "“COMBINATIONS COMPRISING A MENIN-MLL INHIBITOR AND A BCL-2 INHIBITOR” (JANSSEN PHARMACEUTICA NV, priority 2022, published 2026)", "key": {"[1]": {"tested_on": "MOLM-13 tumors in NSG mice", "experiment": "Efficacy (survival) in disseminated MOLM-13 (KMT2A-rearranged) IV model in NSG mice", "assay_type": "in vivo", "procedure": "4) Efficacy of Menin-KMT2A Inhibitor in Combination with Venetoclax, and Optionally, Azacitidine, in MOLM-13 (KMT2A-Rearranged) IV Model in NSG Mice\nCompound 51 was formulated in purified pyrogen-free deionized water, pH 4.0 and prepared to reach a total volume of 8 mL/kg. Doses were adjusted by individual body weight each day. Working stocks of Compound 51 were prepared once per week for each study and stored at 25° C.\nFemale NSG (NOD.Cg-Prkdc^scid Il2rg^tm1Wj1/SzJ) mice were used when they were approximately 6 to 8 weeks of age and weighed approximately 25 g. All animals could acclimate and recover from any shipping-related stress for a minimum of 7 days prior to experimental use. Autoclaved water and irradiated food were provided ad libitum, and the animals were maintained on a 12 hour light and dark cycle. Cages, bedding, and water bottles were autoclaved before use and changed weekly. The tissue culture and cell injection reagents are summarized below in Table 5.\nTumor Model and Cell Culture Method\nHuman AML MOLM-13 cells were cultured at 37° C., 5% CO2 in the indicated complete culture media (RPMI 1640+10% HI-FBS+2 mM L-glutamine+50 μg/ml Gentamycin). Cells were harvested while in logarithmic growth and resuspended in cold (4° C.) Roswell Park Memorial Institute (RPMI) 1640 in serum-free medium.\nFor the disseminated MOLM-13 model, each mouse received 1×10^5 cells via IV injection in a total volume of 0.2 mL using a 26-gauge needle.\nDay 0 is the day of tumor cell implantation and study initiation.\nMice bearing IV MOLM-13 xenograft tumors were randomly assigned to treatment groups 5 days post-tumor cell engraftment.\nAnimals were monitored daily for clinical signs related to either compound toxicity or tumor burden (i.e., hind limb paralysis, lethargy, etc.).\nFor survival assessment, results were plotted as the percentage survival against days post tumor implant. Negative clinical signs and/or ≥20% body weight loss was used as a surrogate endpoint for death. Median survival was determined utilizing Kaplan-Meier survival analysis. The percent increased life span (ILS) was calculated as: ((median survival day of treated group−median survival day of control group)/median survival day of control group)×100. Animals failing to reach the surrogate endpoint due to adverse clinical signs or death unrelated to treatment were censored for the survival assessment. As defined by NCI criteria, ≅25% ILS is considered biologically significant. (Johnson J I et al. Br J Cancer. 2001. 84(10), 1424-1431).\nSurvival and body weight data were graphically represented utilizing Prism (Version 9). Statistical significance for body weights was evaluated as described above. Statistical significance was evaluated for Kaplan-Meier survival plots comparing therapeutic treatment group vs. appropriate vehicle-treated control using log-rank (Mantel-Cox) test in R software version 3.4.2. Differences between groups were considered significant when the p value was ≤0.05.\nThe disseminated MOLM-13 model described above was used to examine the efficacy of menin-KMT2A-inhibitor (formulated as described above) in combination with venetoclax (formulated in polyethylene glycol [PEG]-400/Phosal50/dimethyl sulfoxide [DMSO]), and optionally azacitidine (formulated in 0.9% saline). Treatment with compound(s) was initiated 5 days after cell injection. Compound 51 was given in the morning, and venetoclax or azacitidine was given in the afternoon, approximately 6-8 hr apart."}, "MV4-11 cells": {"tested_on": "MV4-11 cells", "experiment": "In vitro proliferation (Cell Titer Glo), Compound 51 with decitabine and venetoclax, MV4-11", "assay_type": "cell-based, human", "parameters": "key to Synergy/antagonism call (maxR test): no asterisk: absence of any asterisk indicates an additive effect; antagonism is indicated by “*”; synergy is indicated by “**”; Effect size (BIGL, HSA null model): scale not given here", "procedure": "3a) In Vitro Proliferation—Menin-MLL Inhibitor in Combination with a DNA Hypomethylating Agent (Decitabine) and a BCL2 Inhibitor (Venetoclax)\nThe effect of Compound 51 in combination with decitabine and venetoclax was determined in proliferation assays.\nAML cell lines MOLM-13, OCI-AML3 and MV4-11 were purchased from DSMZ. MOLM-13 were grown in RPMI medium supplemented with 10% Fetal Bovine Serum (FBS) and 1% penicillin/streptomycin. MV4-11 cells were grown in IMDM medium supplemented with 10% FBS and 1% penicillin/streptomycin. OCI-AML3 cells were cultured in 80-90% alpha-MEM (without ribo- and deoxyribonucleosides)+10-20% FBS. All cell lines were cultured at 37° C. in 5% CO2 atmosphere.\nAML cell lines (10×10^3 cells/well) were seeded in 96-well plates and grown for 6 days in serum (10%)-containing medium in the presence or absence of inhibitors at the indicated concentrations. Proliferation was analyzed by means of a Cell Titer Glo assay using the CellTiter 96 Aqueous One Solution Cell Proliferation Assay (Promega, Madison, WI, USA), according to the manufacturer's instructions. Data are mean with standard deviation from two to four independent experiments in technical triplicates.\nR-based Biochemically Intuitive Generalized Loewe (BIGL) model implemented with a highest single agent (HSA) null model. Specifically, the BIGL methodology was applied to calculate drug-drug interactions (Van der Borght, K., Tourny, A., Bagdziunas, R. et al. BIGL: Biochemically Intuitive Generalized Loewe null model for prediction of the expected combined effect compatible with partial agonism and antagonism. Sci Rep 7, 17935 (2017); Thas, O., Tourny, A., Verbist, B., Hawinkel, S., Nazarov, M., Mutambanengwe, K., & Bijnens, L. Statistical detection of synergy: new methods and a comparative study. Pharmaceutical Statistics (2021)).\nSynergy matrix results of the BIGL analysis of the cell line data with HSA as mean model calculated on the basis of the cellular metabolic activity using Cell Titer-Glo assay. Bootstrap confidence intervals are indicated. Effect sizes and their confidence intervals are shown. […] No significant average effect if zero is included in the interval."}, "[2]": {"conditions": "Compound 51 0.01 μM, Decitabine 0.015 μM, Venetoclax 0.001 μM"}, "[3]": {"conditions": "Compound 51 0.01 μM, Decitabine 0.15 μM, Venetoclax 0.002 μM"}, "[4]": {"conditions": "Compound 51 0.01 μM, Decitabine 1.5 μM, Venetoclax 0.02 μM"}, "[5]": {"conditions": "Compound 51 0.05 μM, Decitabine 0.015 μM, Venetoclax 0.001 μM"}, "[6]": {"conditions": "Compound 51 0.05 μM, Decitabine 0.15 μM, Venetoclax 0.002 μM"}, "[7]": {"conditions": "Compound 51 0.05 μM, Decitabine 1.5 μM, Venetoclax 0.02 μM"}, "[8]": {"conditions": "Compound 51 0.1 μM, Decitabine 0.15 μM, Venetoclax 0.002 μM"}, "[9]": {"conditions": "Compound 51 0.1 μM, Decitabine 1.5 μM, Venetoclax 0.02 μM"}}}
{"smiles": "CC(=O)N1CCC(CN2CC[C@@H](Cc3cn(-c4ccc(F)cc4C(=O)N(C)C(C)C)c4cncc(C)c34)C2)CC1", "note": "[Compound 51]", "values": [{"measurement": "lifespan, Compound 51 in combination with venetoclax compared to venetoclax alone", "setting": "[1]; MOLM-13 tumor-bearing mice", "result": "statistically significant increased lifespan"}, {"measurement": "lifespan, Compound 51 in combination with venetoclax plus azacitidine compared to doublet venetoclax plus azacitidine", "setting": "[1]; MOLM-13 tumor-bearing mice", "result": "statistically significant increased lifespan"}, {"measurement": "% ILS (increased life span)", "setting": "[1]; NSG mice with established MOLM-13 tumors, 4 weeks treatment, azacitidine 2 mg/kg ip QD × 7, venetoclax 100 mg/kg po QD × 28, Compound 51 2 mg/kg po QD × 28 (Table 6)", "result": 5, "unit": "%"}, {"measurement": "Effect size (BIGL, HSA null model)", "setting": "MV4-11 cells; Compound 51 0.001 μM, Decitabine 0.0015 μM, Venetoclax 0.0001 μM", "result": "−0.02"}, {"measurement": "Effect size (BIGL, HSA null model)", "setting": "MV4-11 cells; Compound 51 0.001 μM, Decitabine 0.015 μM, Venetoclax 0.001 μM", "result": "−0.05"}, {"measurement": "Effect size (BIGL, HSA null model)", "setting": "MV4-11 cells; Compound 51 0.001 μM, Decitabine 0.15 μM, Venetoclax 0.002 μM", "result": "−0.01"}, {"measurement": "Effect size (BIGL, HSA null model)", "setting": "MV4-11 cells; Compound 51 0.001 μM, Decitabine 1.5 μM, Venetoclax 0.02 μM", "result": "−0.08"}, {"measurement": "Effect size (BIGL, HSA null model)", "setting": "MV4-11 cells; Compound 51 0.001 μM, Decitabine 3 μM, Venetoclax 0.2 μM", "result": "−0.06"}, {"measurement": "Effect size (BIGL, HSA null model)", "setting": "MV4-11 cells; Compound 51 0.01 μM, Decitabine 0.0015 μM, Venetoclax 0.0001 μM", "result": "−0.02"}, {"measurement": "Effect size (BIGL, HSA null model)", "setting": "MV4-11 cells; [2]", "result": 0.22}, {"measurement": "Synergy/antagonism call (maxR test)", "setting": "MV4-11 cells; [2]", "result": "**"}, {"measurement": "Effect size (BIGL, HSA null model)", "setting": "MV4-11 cells; [3]", "result": "−0.26"}, {"measurement": "Synergy/antagonism call (maxR test)", "setting": "MV4-11 cells; [3]", "result": "**"}, {"measurement": "Effect size (BIGL, HSA null model)", "setting": "MV4-11 cells; [4]", "result": "−0.1"}, {"measurement": "Synergy/antagonism call (maxR test)", "setting": "MV4-11 cells; [4]", "result": "**"}, {"measurement": "Effect size (BIGL, HSA null model)", "setting": "MV4-11 cells; Compound 51 0.01 μM, Decitabine 3 μM, Venetoclax 0.2 μM", "result": "−0.06"}, {"measurement": "Effect size (BIGL, HSA null model)", "setting": "MV4-11 cells; Compound 51 0.05 μM, Decitabine 0.0015 μM, Venetoclax 0.0001 μM", "result": 0}, {"measurement": "Effect size (BIGL, HSA null model)", "setting": "MV4-11 cells; [5]", "result": "−0.17"}, {"measurement": "Synergy/antagonism call (maxR test)", "setting": "MV4-11 cells; [5]", "result": "**"}, {"measurement": "Effect size (BIGL, HSA null model)", "setting": "MV4-11 cells; [6]", "result": "−0.24"}, {"measurement": "Synergy/antagonism call (maxR test)", "setting": "MV4-11 cells; [6]", "result": "**"}, {"measurement": "Effect size (BIGL, HSA null model)", "setting": "MV4-11 cells; [7]", "result": "−0.1"}, {"measurement": "Synergy/antagonism call (maxR test)", "setting": "MV4-11 cells; [7]", "result": "**"}, {"measurement": "Effect size (BIGL, HSA null model)", "setting": "MV4-11 cells; Compound 51 0.05 μM, Decitabine 3 μM, Venetoclax 0.2 μM", "result": "−0.06"}, {"measurement": "Effect size (BIGL, HSA null model)", "setting": "MV4-11 cells; Compound 51 0.1 μM, Decitabine 0.0015 μM, Venetoclax 0.0001 μM", "result": 0.03}, {"measurement": "Effect size (BIGL, HSA null model)", "setting": "MV4-11 cells; Compound 51 0.1 μM, Decitabine 0.015 μM, Venetoclax 0.001 μM", "result": "−0.06"}, {"measurement": "Effect size (BIGL, HSA null model)", "setting": "MV4-11 cells; [8]", "result": "−0.09"}, {"measurement": "Synergy/antagonism call (maxR test)", "setting": "MV4-11 cells; [8]", "result": "**"}, {"measurement": "Effect size (BIGL, HSA null model)", "setting": "MV4-11 cells; [9]", "result": "−0.3"}, {"measurement": "Synergy/antagonism call (maxR test)", "setting": "MV4-11 cells; [9]", "result": "**"}, {"measurement": "Effect size (BIGL, HSA null model)", "setting": "MV4-11 cells; Compound 51 0.1 μM, Decitabine 3 μM, Venetoclax 0.2 μM", "result": "−0.06"}, {"measurement": "Effect size (BIGL, HSA null model)", "setting": "MV4-11 cells; Compound 51 0.5 μM, Decitabine 0.0015 μM, Venetoclax 0.0001 μM", "result": 0}, {"measurement": "Effect size (BIGL, HSA null model)", "setting": "MV4-11 cells; Compound 51 0.5 μM, Decitabine 0.015 μM, Venetoclax 0.001 μM", "result": "−0.02"}, {"measurement": "Effect size (BIGL, HSA null model)", "setting": "MV4-11 cells; Compound 51 0.5 μM, Decitabine 0.15 μM, Venetoclax 0.002 μM", "result": "−0.02"}, {"measurement": "Effect size (BIGL, HSA null model)", "setting": "MV4-11 cells; Compound 51 0.5 μM, Decitabine 1.5 μM, Venetoclax 0.02 μM", "result": "−0.03"}, {"measurement": "Effect size (BIGL, HSA null model)", "setting": "MV4-11 cells; Compound 51 0.5 μM, Decitabine 3 μM, Venetoclax 0.2 μM", "result": "−0.03"}, {"measurement": "Effect size (BIGL, HSA null model)", "setting": "MV4-11 cells; Compound 51 1 μM, Decitabine 0.0015 μM, Venetoclax 0.0001 μM", "result": "−0.03"}, {"measurement": "Effect size (BIGL, HSA null model)", "setting": "MV4-11 cells; Compound 51 1 μM, Decitabine 0.015 μM, Venetoclax 0.001 μM", "result": "−0.02"}, {"measurement": "Effect size (BIGL, HSA null model)", "setting": "MV4-11 cells; Compound 51 1 μM, Decitabine 0.15 μM, Venetoclax 0.002 μM", "result": "−0.02"}, {"measurement": "Effect size (BIGL, HSA null model)", "setting": "MV4-11 cells; Compound 51 1 μM, Decitabine 1.5 μM, Venetoclax 0.02 μM", "result": "−0.03"}, {"measurement": "Effect size (BIGL, HSA null model)", "setting": "MV4-11 cells; Compound 51 1 μM, Decitabine 3 μM, Venetoclax 0.2 μM", "result": "−0.08"}, {"measurement": "combination effect on proliferation (in words)", "setting": "MV4-11 cells; pairwise matrix of decitabine and Compound 51 in the presence of Venetoclax, MV4-11, 6-day CellTiter-Glo", "result": "synergistically cytotoxic"}]}
